Consider 1 compound from US9980976B2, “Use of REDD1 inhibitors to dissociate therapeutic and adverse atrophogenic effects of glucocorticoid receptor agonists” (Northwestern University, priority 2015, dated 2018).

Series [1] deals with CD34+ follicular SCs and p63-positive progenitors. Nature of the series: CD34+ follicular epithelial stem cells and p63+ progenitors in mouse skin (immunostaining). Type of series: in vivo. Conditions: chronic FA treatment. The source says:
Sections of formalin-fixed, paraffin-embedded skin and ORCs were stained with hematoxylin and eosin (H&E), Masson's trichrome to evaluate the effect on dermis and collagen fibers (Sheehan & Hrapchack, 1980), and with antibodies against BrdU (BD Biosciences, San Jose, Calif., USA), keratins 1, 5, and 10, loricrin (Covance, Princeton, N.J.), phospho-mTORSer2448 (Cell Signaling Technology, Inc., Danvers, Mass., USA), REDD1 (Proteintech Group, Inc, Chicago, Ill.), p63 (eBioscience, San Diego, Calif., USA), and CD34 (Abcam, Cambridge, Mass., USA).
The numbers of BrdU+, p63+, and total number of basal keratinocytes were evaluated in 10 fields of view in each skin/ORC sample under the microscope. Number of BrdU+ and p63+ cells is presented as percent of total number of basal keratinocytes. The number of CD34+ hair follicles among 10 randomly selected hair follicles per skin sample was evaluated under the microscope.

A further series deals with pri-miR-221. The experiment in a line: Q-PCR analysis of primary miR-221 in mouse epidermis. Type of series: in vivo. Conditions: 24 h after single FA application and after the first week of chronic treatment. How it is done:
FIG. 9. Inverse correlation between pri-miR-221 and REDD1 expression during glucocorticoid treatment. B6D2 mice were treated with FA topically as described in Materials and Methods, epidermis was harvested at indicated time points. A. Western blot analysis. B. Q-PCR analysis of primary miR-221. Data are expressed as the fold change (mean±SD) with respect to the controls (unpaired two-tailed t-test, n=3).
Total RNA from murine epidermis, whole human skin, and cell cultures was isolated with RiboPure kit (Ambion, Life Technologies, Grand Island, N.Y., USA). Total RNA from murine s.c. adipose was isolated with RNeasy Lipid Tissue Kit (Qiagen, Valencia, Calif., USA). The RNA samples were treated with TURBOT™ DNase (Ambion). The gene expression was assessed using semi-quantitative two-step RT-PCR and quantitative Q-PCR. Reverse transcription was performed using 1 μg RNA, random hexamers, and M-MLV reverse transcriptase (Invitrogen, Life Technologies), according to manufacturer instructions. The gene-specific primers were designed with NCBI Primer-BLAST (data not shown, see Baida et al., EMBO, 2015, at Supplementary Table S4). […] For semi-quantitative PCRs, Taq DNA polymerase (Promega) was used, and PCR products were separated on 1.5% agarose gel and visualized using automated imaging system (Bio-Rad, Hercules, Calif., USA). […]

The subject of the next series is GR. The experiment in a line: GR nuclear translocation (immunofluorescence in HaCaT, Western blot of nuclear extracts in CEM). Type of series: cell-based, human. The following applies: HaCaT cells, 1 uM FA. On the procedure: FIG. 15. Rapamycin inhibits GR nuclear translocation and phosphorylation. A. GR nuclear translocation in HaCaT cells was determined by immunofluorescence as described in Materials and Methods. Cells on coverslips were pretreated with solvent (Control) or Rapamycin (1 uM×6 h) and treated with 1 uM FA for indicated time. B. GR nuclear translocation in CEM cells was determined by Western blot analysis of nuclear protein extracts. Membranes were probed with anti-HDAC-1 antibodies to verify equal protein loading and transfer. C, D. GR phosphorylation in HaCaT (C) and CEM (D) cells was determined by Western blot analysis of whole cell lysates. Membranes were probed with anti-GAPDH antibodies to verify equal protein loading and transfer.
GR nuclear translocation was determined by immunofluorescence in HaCaT cells. Cells infected with pGIPZ and shREDD1 lentiviruses were selected with puromycin, seeded on coverslips. After the treatments, cells were fixed with 2% formaldehyde and permeabilized with acetone:methanol (1:1 v/v). After blocking, cells were incubated with primary rabbit anti-GR antibody (H-300, Santa Cruz Biotechnology, Santa Cruz, Calif., USA) followed by secondary anti-rabbit FITC-conjugated antibody (Jackson Immuno Research). Cell nuclei were counterstained with DAPI (Invitrogen, Life Technologies, Grand Island, N.Y., USA). […]

A further series deals with mTOR. Nature of the series: mTOR activity in mouse skin (phosphorylation of 4E-BP1 and rpS6, phospho-mTOR Ser2448). It counts as in vivo. Conditions: B6D2 mice, topical FA. The text has this: Because REDD1 is a known inhibitor of mTOR signaling (Sofer et al, 2005; Wang et al, 2006; DeYoung et al, 2008; Shimizu et al, 2011), we tested whether FA inhibits mTOR activity in the skin. In previous studies, mTOR activity has been monitored by phosphorylation of its major substrates, 4E-BP1 (eukaryotic initiation factor 4E binding protein 1) and S6K1 (ribosomal p70/S6 kinase 1) as well as ribosomal protein S6 (rpS6), a substrate of S6K1 (Checkley et al, 2011). As basal level of S6K1 phosphorylation was low in skin of B6D2 mice, we used 4E-BP1 and rpS6 as preferred markers. […] Moreover, there was an inverse correlation between phosphorylation of mTOR targets and REDD1 expression in the epidermis. By the time when REDD1 expression reached its peak (8 h after 1st and 2nd FA applications), the repression of mTOR activity by FA was most pronounced (FIGS. 2A, B). We further confirmed this inverse correlation using immunostaining for REDD1 and active, phosphorylated at Ser2448 mTOR (FIG. 2A). […]

With `CC1(C)O[C@@H]2C[C@H]3[C@@H]4C[C@H](F)C5=CC(=O)C=C[C@]5(C)[C@@]4(F)[C@@H](O)C[C@]3(C)[C@]2(C(=O)CO)O1` [FA, fluocinolone acetonide], in series [1] (REDD1 KO mice), the “decrease in number of p63+ basal keratinocytes” value was 20% and the “hair follicles CD34 positive” value worked out at 40%. In addition, in series [1] (wild-type mice), the “decrease in number of p63-positive progenitors in the basal layer of epidermis” value is given as around 40% and the “hair follicles CD34 positive” value turned out to be 5%. For the same compound, the pri-miR-221 level result with pri-miR-221 is “significantly increased”. Moreover, in the series on GR, the “time GR remained in the nucleus” value is 2 to 24 h and the “time to GR nuclear import” value was 10 min. Besides, the “mTOR activity in the skin” value in the series on mTOR was “blocked mTOR activity”.
